Source: US10946096B2, “Nitrobenzaldehyde proton release for manipulation of cellular acidosis” (priority 2014, dated 2021)
“And” between values parts separate entries of the source, which are not always exact repeats. Identical values can stand only once.

Columns and labels:
[1] = system: MDA-MB-231 cells; assay: Optical recording of pHi (DCFDA) in MDA-MB-231 cells before/after UV flash photolysis of NBA; format: cell-based, human
Method: (§1) Optical Recording of pHi MDA-MB-231. DCFDA stock solution was diluted to a concentration of 10 μM in a 3 mL rat aCSF solution. MBA-MD-231 cells were flashed every 30 seconds at 495/440 nm for a duration of 900/700 ms, respectively, at 40× magnification and 2 seconds at each wavelength under the 10× magnification. […] Optical recording of pHi was monitored for a minimum of 10 minutes to represent a steady state.
(§2) NBA Load for Focal Acidification of MDA-MB231. Seventy-five μL of NBA stock solution was mixed in 3 mL of rat aCSF and bath applied to MDA-MB-231 cells for 10 minutes. After bath application, cells were washed a minimum of three times with rat aCSF. MDA-MB-231 cells were exposed to 60-30-60 UV light paradigm. After each exposure, pH was monitored for 2 minutes to quantify pH, acidification.

[2] = system: MCF-7 cells; assay: Cell death quantification MCF-7 (blebbing and/or Annexin V); format: cell-based, human
Method: Apoptosis Indicator. The apoptosis indicator Annexin V Alexa Fluor 568 was stored in a solution containing 25 mM HEPES, 140 mM NaCl, 1 mM EDTA, pH 7.4, plus 0.1% bovine serum albumin (BSA). A 10 μL of stock Annexin V Alexa Fluor 568 was diluted in 2 mL of binding buffer. The binding buffer consisted of: 10 mM HEPES, 140 mM NaCl, and 2.5 mM CaCl2, at a pH of 7.4. Cell Death Quantification MCF-7. After UV flash paradigm, the presences of blebs were observed and recordings of the pH in the intrablebular inflationary space (pHb) were acquired using the DCFDA fluorescence as they expanded. […] We quantified blebs as cellular death based on previously published findings which described blebbing as an irreversible death process (Andrade et al., Biology of the Cell, 2010, 102(1):25-35). Control Experiments. Controls in each experiment were performed by moving 10 mm or more away from the UV or 980 nm exposed region. Recordings of pHi were performed to detect if NBA or the nanoparticle affected the cell or inadvertently uncaged hydrogens in the periphery of the plate. Detection of apoptosis and/or blebs was performed using Annexin V Alexa Fluor 568 and DCFDA optical recording. Control experiments were performed in the following conditions: UV alone, time alone, and NBA alone. Each one of the control experiments was performed for a minimum of 3 hours.

[3] = system: MDA-MB-231 cells; assay: Cell death quantification MDA-MB-231 (blebbing and/or Annexin V); format: cell-based, human; settings: in less than three hours following NBA flash photolysis
Method: Cell Death Quantification MDA-MB-231. One hour after the UV flash paradigm to induce intracellular acidosis, the cells were lightly washed and the media was replaced with the phosphatidylserine indicator Annexin V Alexa Fluor 568. This solution was made using 10 μL of the stock solution and diluted in 2 ml of rat aCSF. Fifteen minutes was allowed for membrane binding, then fluorescence was monitored for the next hour or until all cells were expressing apoptosis. As with MCF-7 cells, we quantified blebs as cellular death based on previously published findings which described blebbing as an irreversible death process (Andrade et al., Biology of the Cell, 2010, 102(1):25-35).

[4] = system: MCF-7 cells; assay: Optical recording of pHi (DCFDA) in MCF-7 cells before/after UV flash photolysis of NBA; format: cell-based, human
Method: as §1, with “pH, MCF-7.” for “pHi MDA-MB-231.”, “MCF-7” for “MBA-MD-231”
as §2, with “MCF-7.” for “MDA-MB231.”, “MCF-7” for “MDA-MB-231”, “pHi” for “pH,”

[5] = system: in vitro tadpole brainstem; settings: 10 μM NBA, entire in vitro tadpole brainstem; cited from earlier work
[6] = system: rat ventricular myocytes; settings: NBA 1 mM, absence of UV exposure; cited from earlier work
[7] = system: PC12 cells; assay: Cell death quantification PC12 (Annexin V Alexa Fluor 568); format: cell-based, Rat
Method: Apoptosis Indicator. The apoptosis indicator Annexin V Alexa Fluor 568 was stored in a solution containing 25 mM HEPES, 140 mM NaCl, 1 mM EDTA, pH 7.4, plus 0.1% bovine serum albumin (BSA). A 10 μL of stock Annexin V Alexa Fluor 568 was diluted in 2 mL of binding buffer. The binding buffer consisted of: 10 mM HEPES, 140 mM NaCl, and 2.5 mM CaCl2, at a pH of 7.4.
Cell Death Quantification PC12. One hour after the UV flash paradigm to induce intracellular acidosis, the cells were lightly washed and the media was replaced with the phosphatidylserine indicator Annexin V Alexa Fluor 568. This solution was made using 10 μL of the stock solution and diluted in 2 ml of rat aCSF. Fifteen minutes was allowed for membrane binding, then fluorescence was monitored for the next hour or until all cells were expressing apoptosis.
Control Experiments. Controls in each experiment were performed by moving 10 mm or more away from the UV or 980 nm exposed region. Recordings of pHi were performed to detect if NBA or the nanoparticle affected the cell or inadvertently uncaged hydrogens in the periphery of the plate. Detection of apoptosis and/or blebs was performed using Annexin V Alexa Fluor 568 and DCFDA optical recording. Control experiments were performed in the following conditions: UV alone, time alone, and NBA alone. Each one of the control experiments was performed for a minimum of 3 hours.

[8] = system: PC12 cells; assay: Optical recording of pHi (DCFDA) in PC12 cells before/after UV flash photolysis of NBA; format: cell-based, Rat
Method: Calibrating and Measuring pH with DCFDA. For ratiometric pH, measurements, PC12 cells were loaded with the pH-sensitive dye Carboxy-DCFDA (10 μM in rat aCSF). Nigericin was titrated to a pH of 2.0, 4.0, 5.0, 6.0, 7.0 or 8.0. The emitted fluorescence of DCFDA was recorded from cells at each of the titrated pH solutions. […] Each ratio from individual cells (n=421) was recorded for each pH. A curve of best fit was created (R^2=93.02) and used for the conversion of fluorescence to pHi.
Optic Recording of pHi PC12. DCFDA stock solution was diluted to a concentration of 10 μM in a 3 mL rat aCSF solution. PC12 cells were flashed every 30 second at 495/440 nm for a duration of 900/700 ms, respectively, at 40× magnification and 2 seconds at each wavelength under the 10× magnification. Cells were washed three times with rat aCSF after 10 minutes and prior to recording fluorescence to monitor steady state.
as §2, with “Loading” for “Load”, “PC12.” for “MDA-MB231.”, “PC12” for “MDA-MB-231”, “to” for “to 60-30-60”, “using various flash paradigms.” for “paradigm.”
In our experiments PC12 cells were loaded with the ratiometric fluorescent dye DCFDA. DCFDA was utilized for measuring changes in the intracellular pH (pHi) of a cell over a broad pH range from 2.0 to 7.0 (FIG. 3A, 3B). In this embodiment of the invention, NBA (1 mM) was bath applied at room temperature to PC12 cells and allowed to passively diffuse across the cell membrane. Emitted fluorescence ratios were taken prior to photoactivation of NBA with a flash photolysis paradigm (FIG. 15). Emitted fluorescence ratios were also recorded after NBA was exposed to a wavelength of 350 nm UV light. Using fluorescence microscopy, we can optically record and quantify changes in pHi.

[9] = system: MDA-MB-231 tumors; assay: Survival of nude mice with MDA-MB-231 tumors after one-time NBA phototherapy; format: in vivo
Method: The described inventive technique is effective in increasing the duration of survival in animals with cancer in vivo. […] NBA was injected into the established triple negative breast cancer MDA-MB-231 tumors of 6 week old nude mice. One hour was permitted to allow adequate diffusion of the NBA into the intracellular space of the cancer cells. Following this one-hour diffusion period, the tumors were exposed to 405 nm photo-activating light (85 mW) for a 60-30-60 excitation paradigm (described previously).
Following their one-time treatment of either NBA with photo-activation or control aCSF, mice were monitored and euthanized in accordance with the Humane Endpoints approved by the University of Texas at San Antonio Institutional Animal Care and Use Committee (IACUC). The control aCSF treated mice (n=4) survived for an average of 16.5±1.66 days from the day of treatment, with survival days from treatment ranging from 14 to 19 days. In contrast, the one-time NBA treated mice survived for 35.2±5.70 days from the day of treatment (FIG. 22). The NBA treated mice survival ranged from 18 to 50 days from treatment.

[10] = system: MDA-MB-231 tumors; assay: Tumor growth of MDA-MB-231-GFP tumors in nude mice after one-time NBA phototherapy; format: in vivo; settings: one-time 0.1 ml 1 mM NBA into tumor + 405 nm 60-30-60 illumination, P<0.05
Method: We injected the aggressive triple negative breast cancer MDA-MB-231-GFP (2×10^6 cells) into the mammary fat pad of 5 week old female nude mice. Tumors appeared after approximately one week following injection. Treatment was initiated once the tumors reached and maintained a length of 5 mm for two consecutive days. The mice received a one-time treatment of either a control injection if 0.1 ml of aCSF to the tumor or 0.1 ml of NBA (1 mM) followed by photoactivation. The NBA/photoactivation treatment was conducted as follows: one hour after NBA injection, the animal was anesthetized (1.5-4% isoflurane) prior to the insertion of a 200 μm fiber optic cannula into the tumor mass. The interior of the tumor was illuminated with 405 nm light (80-85 mW) via a ceramic cannula using the same illumination paradigm which was effective in vitro, specifically 60 seconds of illumination, 60 seconds of no illumination, 30 seconds of illumination, 60 seconds of no illumination, and 60 seconds of illumination. This paradigm is referred to as a “60-30-60” illumination paradigm.
Tumors were measured daily in order to calculate changes in tumor volume using the formula: Tumor Volume(TV)=[…]
The percent change in tumor volume was calculated by normalizing the percent change to the tumor volume recorded on the day of treatment. […]

Which “Mean pHi before flash paradigm” value ([1]; MDA-MB-231 cells (n=38), loaded with NBA, before 60-30-60 UV flash) does the source give for `O=Cc1ccccc1[N+](=O)[O-]` [NBA, 2-nitrobenzaldehyde] here?
Its value is 6.47±0.06.

What about the “Mean Δ pHi” value ([1]; MDA-MB-231 cells, NBA, 60-30-60 UV flash) of the same molecule?
The value was 3.68±0.18 pH units.

And the “Mean pHi after flash paradigm” value ([1]; MDA-MB-231 cells, NBA, after 60-30-60 UV flash)?
Its value is 2.78±0.23.

What about the “Percentage of apoptosis, NBA only” value ([2]; MCF-7 cells exposed only to NBA, no UV) of the same molecule?
The value was 2.3%.

What about the “Percentage of death within 2 hours” value ([2]; MCF-7 cells incubated in NBA and exposed to UV, within 2 hours) of the same molecule?
The value was “above 90%”.

What about the “Average apoptosis over time” value ([2]; MCF-7 cells, 1 mM NBA + 60-30-60 UV flash) of the same molecule?
The value was 98.3±0.3%.

What about the Cell death [3] of the same molecule?
The Cell death was 55.3%.

What about the “Average pHi drop, first flash” value ([4]; MCF-7 cells (n=13), 60-30-60 UV flash paradigm, flash 1) of the same molecule?
The value was 0.68.

What about the “Average pHi drop, second flash” value ([4]; MCF-7 cells (n=13), 60-30-60 UV flash paradigm, flash 2) of the same molecule?
Its value is 0.35.

And the “Average pHi drop, third flash” value ([4]; MCF-7 cells (n=13), 60-30-60 UV flash paradigm, flash 3)?
The value was 0.59.

And the “Mean pHi before flash photolysis” value ([4]; MCF-7 cells, 1 mM NBA, 10 μM DCFDA, before 60-30-60 UV flash paradigm)?
The value was 7.38±0.13 and 7.38.

And the “Mean pHi after flash photolysis” value ([4]; MCF-7 cells, 1 mM NBA, after 60-30-60 UV flash paradigm)?
The value was 6.22±0.15 and 6.22.

What about the “Effect on spontaneous fictive respiratory motor output and central respiratory chemoreceptor responses” value [5] of the same molecule?
The value was “no disruption”.

What about the “Effect on diastolic Ca2+, cellular contraction, spatial pHi regulation” value [6] of the same molecule?
Its value is “did not alter”.

And the Average apoptosis ([7]; NBA + UV flash photolysis)?
Its Average apoptosis is 84.0±1.33%.

What about the “Percentage of cells exhibiting apoptosis, NBA alone” value ([7]; NBA alone, no UV (n=47)) of the same molecule?
Its value is 2.1%.

And the “Average pHi drop, first flash” value ([8]; PC12 cells (n=22), 60-30-60 UV flash paradigm, flash 1)?
Its value is 0.72.

And the “Average pHi drop, second flash” value ([8]; PC12 cells (n=22), 60-30-60 UV flash paradigm, flash 2)?
Its value is 0.36.

What about the “Average pHi drop, third flash” value ([8]; PC12 cells (n=22), 60-30-60 UV flash paradigm, flash 3) of the same molecule?
Its value is 0.36.

And the “Mean pHi before flash photolysis” value ([8]; PC12 cells, 1 mM NBA, 10 μM DCFDA, after NBA application and prior to photolysis)?
Its value is 7.55±0.025 and 7.55.

And the “Mean pHi after flash photolysis” value ([8]; PC12 cells, 1 mM NBA, after 350 nm UV exposure)?
Its value is 6.37±0.03 and 6.37.

What about the “Mean change in pHi (Δ pHi)” value ([8]; PC12 cells, 1 mM NBA, flash photolysis) of the same molecule?
Its value is 1.18 pH units.

And the “Mean survival from the day of treatment” value ([9]; one-time NBA + 405 nm (85 mW) 60-30-60 photo-activation, nude mice)?
Its value is 35.2 ± 5.70 days.

And the “Increase in survivability vs control aCSF” value ([9]; one-time NBA photo-activation vs aCSF control, P=0.012)?
Its value is 113.3%.

What about the “Duration of significant reduction in tumor volume vs aCSF control” value [10] of the same molecule?
The value was “up to 13 days”.
